The text below walks through data of ChEMBL document CHEMBL2016512, “Calcitonin gene-related peptide (CGRP) receptor antagonists: novel aspartates and succinates” (Bioorg Med Chem Lett, 2012).

pIC50: −log10 of the molar value.

Data set [1] concerns the target T1, Calcitonin gene-related peptide type 1 receptor (Homo sapiens, UniProt O60894+Q16602). The experiment in a line: Displacement of [125]CGRP from human CGRP receptor expressed in human SK-N-MC cell membrane after 2 hrs by scintillation counting. Format: cell membranes.
Data set [2] concerns the target T1, Calcitonin gene-related peptide type 1 receptor. Description: Antagonist activity at human CGRP receptor expressed in human SK-N-MC cells assessed as inhibition of CGRP-stimulated cAMP production. Format: functional, cell-based. In general terms: Cyclic AMP is a second messenger, typically raised through Gs and lowered through Gi signalling.
Data set [3] can be described thus: Solubility of the compound. Format: physicochemical.
The next data set deals with Caco-2. The experiment in a line: Permeability across human Caco2 cells. Format: ADME, cell-based. (In general: Caco-2 cells form a polarised layer with tight junctions and transporters.)
A short description of data set [4]: Aqueous solubility of the compound. Format: physicochemical. The following applies: buffer.

For orientation: pIC50 means the negative decadic logarithm of the IC50, by convention in mol/L.

T1 sequence (Q16602 whole entry, one chain of several): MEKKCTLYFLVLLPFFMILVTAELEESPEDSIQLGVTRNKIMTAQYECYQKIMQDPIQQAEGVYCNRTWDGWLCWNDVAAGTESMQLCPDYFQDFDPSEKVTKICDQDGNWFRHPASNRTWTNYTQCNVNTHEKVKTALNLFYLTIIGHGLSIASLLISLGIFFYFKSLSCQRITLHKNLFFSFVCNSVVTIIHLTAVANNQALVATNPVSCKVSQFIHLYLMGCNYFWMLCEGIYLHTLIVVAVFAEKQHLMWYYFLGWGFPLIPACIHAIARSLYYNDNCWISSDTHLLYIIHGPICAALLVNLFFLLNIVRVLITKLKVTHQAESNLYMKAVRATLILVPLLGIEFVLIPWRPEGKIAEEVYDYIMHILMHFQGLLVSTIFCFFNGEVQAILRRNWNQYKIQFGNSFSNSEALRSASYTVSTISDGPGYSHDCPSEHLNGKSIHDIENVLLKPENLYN

As to `O=C(C[C@H](NCc1ccccn1)C(=O)N1CCC(N2CCCCC2)CC1)N1CCC(N2Cc3ccccc3NC2=O)CC1`, the pIC50 in data set [1] is 6.15.
Same read-out and setting: the value for `O=C(C[C@H](NCc1ccc2[nH]ccc2c1)C(=O)N1CCC(N2CCCCC2)CC1)N1CCC(N2Cc3ccccc3NC2=O)CC1` was 6.42.
For `O=C(C[C@H](NCc1ccc2[nH]ncc2c1)C(=O)N1CCC(N2CCCCC2)CC1)N1CCC(N2Cc3ccccc3NC2=O)CC1`, the pIC50 was 6.52 in data set [2] and 6.89 in data set [1].
Regarding `O=C(C[C@H](NC1CCC(O)CC1)C(=O)N1CCC(N2CCCCC2)CC1)N1CCC(N2Cc3ccccc3NC2=O)CC1` (stereo not given in full), in data set [1], the pIC50 is 5.35.
For `O=C(N[C@@H](CC(=O)N1CCC(N2Cc3ccccc3NC2=O)CC1)C(=O)N1CCC(N2CCCCC2)CC1)c1ccc(F)c(F)c1`, the pIC50 in data set [1] is 6.37.
Same read-out and setting: the value for `CC(C)(C)OC(=O)N[C@@H](CC(=O)N1CCC(N2Cc3ccccc3NC2=O)CC1)C(=O)N1CCC(N2CCCCC2)CC1` was 6.23; that for `O=C(N[C@@H](CC(=O)N1CCC(N2Cc3ccccc3NC2=O)CC1)C(=O)N1CCC(N2CCCCC2)CC1)Oc1ccccc1` was 6.55.
As for `O=C(Nc1cccc(Cl)c1Cl)N[C@@H](CC(=O)N1CCC(N2Cc3ccccc3NC2=O)CC1)C(=O)N1CCC(N2CCCCC2)CC1`, the solubility entry in data set [3] was “Insoluble”. For the same molecule, the permeability entry in the data set on Caco-2 is “impermeable”. In data set [1], the pIC50 is 7.01.
As to `O=C(Nc1ccc(Cl)cc1Cl)N[C@@H](CC(=O)N1CCC(N2Cc3ccccc3NC2=O)CC1)C(=O)N1CCC(N2CCCCC2)CC1`, in data set [3], the solubility result is “Insoluble”. For the same molecule, the permeability entry in the data set with Caco-2 is “impermeable”. Also, the pIC50 in data set [1] is 7.44.
For `O=C(Nc1ccccc1F)N[C@@H](CC(=O)N1CCC(N2Cc3ccccc3NC2=O)CC1)C(=O)N1CCC(N2CCCCC2)CC1`, in that order: “Insoluble”, “impermeable” and 7.35.
Take `O=C(Nc1ccccc1Cl)N[C@@H](CC(=O)N1CCC(N2Cc3ccccc3NC2=O)CC1)C(=O)N1CCC(N2CCCCC2)CC1`: the pIC50 in data set [2] is 7.00. Further, the solubility result in data set [3] is “Insoluble”. The permeability entry in the data set on Caco-2 is reported as “impermeable”.
As to `O=C(C[C@H](Nc1cc(Cl)ncn1)C(=O)N1CCC(N2CCCCC2)CC1)N1CCC(N2Cc3ccccc3NC2=O)CC1`, the pIC50 was 7.34 in data set [2] and 7.01 in data set [1].
`O=C(C[C@H](Nc1ccncn1)C(=O)N1CCC(N2CCCCC2)CC1)N1CCC(N2Cc3ccccc3NC2=O)CC1`: in data set [1], the pIC50 is 5.85.
Take `O=C(C[C@H](Nc1ccc(Cl)cc1[N+](=O)[O-])C(=O)N1CCC(N2CCCCC2)CC1)N1CCC(N2Cc3ccccc3NC2=O)CC1`: the pIC50 in data set [2] and in data set [1] was 7.49 throughout.
With `O=C(C[C@H](Nc1nc(Cl)nc2[nH]ncc12)C(=O)N1CCC(N2CCCCC2)CC1)N1CCC(N2Cc3ccccc3NC2=O)CC1`, the pIC50 is 7.00 in data set [2] and 6.60 in data set [1].
For the molecule `Cc1nc(N[C@@H](CC(=O)N2CCC(N3Cc4ccccc4NC3=O)CC2)C(=O)N2CCC(N3CCCCC3)CC2)nc(N)c1[N+](=O)[O-]`, the pIC50 in data set [1] was 7.10.
On to `Cc1nc(N[C@@H](CC(=O)N2CCC(N3Cc4ccccc4NC3=O)CC2)C(=O)N2CCC(N3CCCCC3)CC2)nc2nn[nH]c12`, for which the pIC50 in data set [2] was 6.92; in data set [1] it was 7.14.
Turning to `O=C(C[C@H](Nc1ccc2[nH]ccc2c1)C(=O)N1CCC(N2CCCCC2)CC1)N1CCC(N2Cc3ccccc3NC2=O)CC1`, the pIC50 in data set [2] was 7.23; in data set [1], 6.74.
On to `O=C(C[C@H](Nc1ccc2[nH]ncc2c1)C(=O)N1CCC(N2CCCCC2)CC1)N1CCC(N2Cc3ccccc3NC2=O)CC1`, for which the pIC50 in data set [2] is 6.64; in data set [1] it was 6.77.
On to `O=C(C[C@H](Nc1cccc2ncccc12)C(=O)N1CCC(N2CCCCC2)CC1)N1CCC(N2Cc3ccccc3NC2=O)CC1`, for which, in data set [1], the pIC50 is 6.05.
In the case of `O=C(C[C@H](Nc1ccc(Br)c2ccccc12)C(=O)N1CCC(N2CCCCC2)CC1)N1CCC(N2Cc3ccccc3NC2=O)CC1`, the negative logarithm of the IC50 (pIC50) in data set [1] is 6.92.
`O=C(C[C@H](Nc1cccc2ccccc12)C(=O)N1CCC(N2CCCCC2)CC1)N1CCC(N2Cc3ccccc3NC2=O)CC1`: the pIC50 in data set [1] was 6.66.
Turning to `Cc1cc(C[C@@H](CC(=O)N2CCC(N3Cc4ccccc4NC3=O)CC2)C(=O)N2CCC(N3CCCCC3)CC2)cc2cn[nH]c12`, the solubility entry in data set [4] is “Insoluble”. Also, the pIC50 is 10.72 in data set [2] and 10.22 in data set [1]. For the same molecule, the permeability result with Caco-2 was “impermeable”.
Consider `Cc1cc(C[C@H](CC(=O)N2CCC(N3Cc4ccccc4NC3=O)CC2)C(=O)N2CCC(N3CCCCC3)CC2)cc2cn[nH]c12`, for which the solubility result in data set [4] is “Insoluble”. Also, the pIC50 in data set [2] and in data set [1] was 7.96 throughout. The permeability result in the data set with Caco-2 is recorded as “impermeable”.
Turning to `Cc1cc(C[C@@H](CC(=O)N2CCC(N3Cc4cccc(F)c4NC3=O)CC2)C(=O)N2CCC(N3CCCCC3)CC2)cc2cn[nH]c12`, the solubility result in data set [4] is given as “Insoluble”. The pIC50 in data set [2] is 10.09; in data set [1] it was 9.70. For the same molecule, the permeability entry in the data set with Caco-2 is recorded as “impermeable”.
As for `Cc1cc(C[C@H](CC(=O)N2CCC(N3Cc4cccc(F)c4NC3=O)CC2)C(=O)N2CCC(N3CCCCC3)CC2)cc2cn[nH]c12`, in data set [4], the solubility entry is listed as “Insoluble”. Also, the pIC50 is 8.34 in data set [2] and 8.17 in data set [1]. Also, the permeability result with Caco-2 was “impermeable”.
On to `Cc1cc(CC(CC(=O)N2CCC3(CC2)OC(=O)Nc2ccccc23)C(=O)N2CCC(N3CCCCC3)CC2)cc2cn[nH]c12` (racemic), for which the pIC50 in data set [2] is 9.15; in data set [1] it was 9.48.
`Cc1cc(CC(CC(=O)N2CCC(N3Cc4ccccc4NC3=O)CC2)C(=O)N2CCC(N3CCCCC3)CC2)cc2cn[nH]c12` (racemic): the pIC50 in data set [2] is 10.17; in data set [1], 10.13.
Regarding `Cc1cc(CC(CC(=O)N2CCC(N3Cc4cccc(F)c4NC3=O)CC2)C(=O)N2CCC(N3CCCCC3)CC2)cc2cn[nH]c12` (racemic), the negative logarithm of the IC50 (pIC50) was 10.05 in data set [2] and 9.74 in data set [1].
The like results for `Cc1cc(CC(CC(=O)N2CCC3(CC2)NC(=O)Nc2ccccc23)C(=O)N2CCC(N3CCCCC3)CC2)cc2cn[nH]c12` (racemic) were, in that order, 9.46 and 9.47.
As to `Cc1cc(CC(CC(=O)N2CCC(n3cc(-c4ccccc4)[nH]c3=O)CC2)C(=O)N2CCC(N3CCCCC3)CC2)cc2cn[nH]c12` (racemic), the negative-log IC50 (pIC50) in data set [2] is 10.31; in data set [1] it was 9.82.
Consider `Cc1cc(CC(CC(=O)N2CCC(c3cc4ccccc4[nH]c3=O)CC2)C(=O)N2CCC(N3CCCCC3)CC2)cc2cn[nH]c12` (racemic), for which the pIC50 in data set [2] is 9.92; in data set [1] it was 9.52.
As for `Cc1cc(CC(CC(=O)N2CCC(N3Cc4ccccc4NC3=O)CC2)C(=O)N2CCC3(CC2)OCCO3)cc2cn[nH]c12` (racemic), the pIC50 was 8.24 in data set [2] and 8.49 in data set [1].
Regarding `Cc1cc(CC(CC(=O)N2CCC3(CC2)OC(=O)Nc2ccccc23)C(=O)N2CCC3(CC2)OCCO3)cc2cn[nH]c12` (racemic), the pIC50 is 8.06 in data set [2] and 8.23 in data set [1].
For `Cc1cc(CC(CC(=O)N2CCC(N3Cc4ccccc4NC3=O)CC2)C(=O)N2CCC(C)CC2)cc2cn[nH]c12` (racemic), in that order: 8.70 and 8.57.
The like results for `Cc1cc(CC(CC(=O)N2CCC3(CC2)OC(=O)Nc2ccccc23)C(=O)N2CCCCC2)cc2cn[nH]c12` (racemic) were, in that order, 7.47 and 7.72.
For `Cc1cc(CC(CC(=O)N2CCC(N3Cc4ccccc4NC3=O)CC2)C(=O)N2CCCCC2)cc2cn[nH]c12` (racemic), in that order: 8.16 and 8.43.
Turning to `O=C1Nc2ccccc2C2(CCN(C(=O)CC(Cc3ccc4[nH]ncc4c3)C(=O)N3CCC(N4CCCCC4)CC3)CC2)O1` (racemic), the pIC50 in data set [2] was 7.28; in data set [1], 7.82.
As for `O=C(CC(Cc1ccc2[nH]ncc2c1)C(=O)N1CCC2(CC1)OCCO2)N1CCC(N2Cc3ccccc3NC2=O)CC1` (racemic), the figures for the pIC50 in data set [2] and in data set [1] were 6.49 and 7.06, respectively.
Regarding `O=C1Nc2ccccc2C2(CCN(C(=O)CC(Cc3ccc4[nH]ncc4c3)C(=O)N3CCC4(CC3)OCCO4)CC2)O1` (racemic), the pIC50 in data set [1] is 6.34.
